Measurements from US20130065959A1, “SANITIZING MEAT WITH PERACID AND 2-HYDROXY ORGANIC ACID COMPOSITIONS” (Fresh Express Incorporated, priority 2009, published 2013).

How the values were obtained:
Type in all cases: cell-based
[1] = test system: Lactobacillus plantarum 14917; experiment: Suspended Cells Challenge Test, 20 s residence time, no surfactant (Example 2)
Procedure: (§1) Synergism with respect to efficacy in a Suspended Cells Challenge Test at 20 s residence time with no surfactant.
(§2) The experimental treatment groups were tap water, chlorinated water, a FE sanitizer wash water (FE, FE sanitizer, a solution of peroxyacetic acid and lactic acid, as further specified in a given experiment).
(§3) The experimental protocol was as follows: • 1. Transfer 1.00 mL of a ˜10^8 cfu/g Lactobacillus plantarum (ATCC 14917) stock culture into a test tube containing 9.00 mL of treatment test solution • 2. Vortex the mixture for 15 s • 3. Stop the reaction by transferring 1 mL of the treated samples to 9 mL of Butterfield Phosphate Buffer • 4. Enumerate viable residual cells through serial dilutions and spread plating with 1-mL transfers • 5. […] Repeat Steps 1 to 5 two more times • 7. Repeat Steps 1 to 6 with flume water • 8. Repeat Steps 1 to 6 with chlorinated water • 9. Repeat Steps 1 to 8 with various levels of FE • 10. Repeat Steps 1 to 8 with various levels of lactic acid • 11. Repeat Steps 1 to 8 with various levels of peroxyacetic acid • 12. Repeat Steps 1 to 11 with Listeria innocua (ATCC33090)
(§4) • 1. Log […] is a measure of the percent of microorganisms that are inactivated during the disinfection process and is defined as Log Inactivation=Log10 (No/NT) where No is the initial influent concentration of viable microorganisms; NT is the concentration of surviving microorganisms. As M cfu/g=microbial population of stock culture; W cfu/g=microbial population in solution of “Water Treatment” and X cfu/g=microbial population in solution of “X Treatment,” the Log reduction caused by “Treatment X”=Log (w/x)

[2] = test system: Listeria innocua ATCC 33090; experiment: as above
Procedure: as §1, §2, §3, §4

E. coli K12 = experiment: Attached cells challenge test on produce leaves (Example 1)
Listeria innocua = experiment: as above
[3] = test system: E. coli K-12 (ATCC 25253); experiment: Attached cells on vegetable and fruit surface (Example 7); settings: 45 sec
Procedure: (§5) Inoculum preparation: ATCC freeze dried culture was rehydrated in 10 mL of sterilized tryptic soy broth and mixed homogeneously. 0.1 mL of the stock solution was transferred to 10 mL of TSB and incubated at 37C for 24 h. Enrichment was streaked to confirm purity. 2 mL of the enriched stock was transferred to 200 mL of TSB and incubated at 37C for 24 h and 36 h, respectively for E. coli K-12 (ATCC 25253) (EC) and Listeria innocua (ATCC 33090) (LI) resulting in ˜10^8 cfu/mL stationary phase culture stock. The stock was cooled for at 4C for 1 h. Microbial population of the stationary phase stock culture was enumerated by means of serial dilution with 9-mL Butterfield phosphate buffer tubes and spread plating on Tryptic Soy Agar (TSA) pre-poured agar plates for EC or Modified Oxford Agar (MOX) pre-poured agar plates for LI.
(§6) Vegetable and fruit surface inoculation: The 200 mL˜10^8 cfu/mL stock culture solution was homogeneously mixed by shaking and swirling the Erlenmeyer flask. The 200 mL culture was separated into 4 centrifuge tubes (50 mL each) and centrifuged at 10,000 rpm and 4C for 15 min. The stock culture pellet was re-suspended with 5 mL of 5% Horse Serum. All the re-suspended cultures from the four centrifuge tubes were combined to form 20 mL˜10^9 cfu/mL inoculating stock culture. The outer peel or surface of the test vegetable and fruit was cut into 5cm×2.5 cm pieces or diced into […] cubes in the case of tomatoes for inoculation. 50 uL inoculum in the form of 2 uL droplets were spiked onto the strawberry, and diced tomato surface while 100 uL in the form of 2 uL droplets were inoculated onto the potato peel. The spiked surfaces or peels were placed in a biological safety cabinet for 60 min at 18 to 24C for drying.
(§7) Treatment of inoculated vegetable and fruit surfaces: Each sample of inoculated vegetable or fruit surface was placed into a 2.5L stomacher bag containing 500 mL of the tested solution and shook vigorously for 45 s. The tested solutions included city water, lactic acid solution (LA), peracetic acid solution (PA), and FreshRinse solution (FR). The treated vegetable or fruit surface was immediately transferred into a sterile stomacher bag containing 100 mL of Butterfield phosphate buffer with 1 sodium thiosulfate pellet at the end of the 45 s treatment. Each solution treatment was performed in duplications. The reduction for each solution treatment was compared to that of the city water treatment.

[4] = test system: Listeria innocua (ATCC 33090); experiment: as above; settings: Whole Strawberry, 45 sec
Procedure: as §5, §6, §7

[5] = Peroxyacetic acid 0 ppm, Lactic Acid 2000 ppm
[6] = Peroxyacetic acid 0 ppm, Lactic Acid 2500 ppm
[7] = Peroxyacetic acid 0 ppm, Lactic Acid 3000 ppm
[8] = Peroxyacetic acid 70 ppm, Lactic Acid 0 ppm
[9] = Peroxyacetic acid 75 ppm, Lactic Acid 0 ppm
[10] = Peroxyacetic acid 80 ppm, Lactic Acid 0 ppm

In the case of CC(O)C(=O)O (centres unmarked) [Lactic Acid, lactic acid], the “log reduction of suspended cells” value [1, 5] is reported as 0.00 log10, the “log reduction of suspended cells” value [1, 6] is reported as 0.02 log10 and the “log reduction of suspended cells” value [1, 7] is reported as 0.01 log10. The “log reduction of suspended cells” value [2, 5] was 0.08 log10, the “log reduction of suspended cells” value [2, 6] was 0.19 log10 and the “log reduction of suspended cells” value [2, 7] was 0.05 log10. For the same compound, the “Log reduction, attached cells” value (E. coli K12; Romaine, PAA 0 ppm, LA 0.6%) was 0.24, the “Log reduction, attached cells” value (E. coli K12; Romaine, PAA 0 ppm, LA 0.9%) was 0.37 and the “Log reduction, attached cells” value (E. coli K12; Romaine, PAA 0 ppm, LA 1.2%) was 1.28. The “Log reduction, attached cells” value (E. coli K12; Spinach, PAA 0 ppm, LA 0.6%) was 0.09, the “Log reduction, attached cells” value (E. coli K12; Spinach, PAA 0 ppm, LA 0.9%) was 0.42 and the “Log reduction, attached cells” value (E. coli K12; Spinach, PAA 0 ppm, LA 1.2%) was 0.81. For the same compound, the “Log reduction, attached cells” value (Listeria innocua; Romaine, PAA 0 ppm, LA 0.6%) was 1.1, the “Log reduction, attached cells” value (Listeria innocua; Romaine, PAA 0 ppm, LA 0.9%) was 1.4 and the “Log reduction, attached cells” value (Listeria innocua; Romaine, PAA 0 ppm, LA 1.2%) was 1.5. The “Log reduction, attached cells” value (Listeria innocua; Spinach, PAA 0 ppm, LA 0.6%) was 0.1, the “Log reduction, attached cells” value (Listeria innocua; Spinach, PAA 0 ppm, LA 0.9%) was 0.2 and the “Log reduction, attached cells” value (Listeria innocua; Spinach, PAA 0 ppm, LA 1.2%) was 0.2. The Log reductions ([3]; Diced Tomato, PA 0 ppm, LA 1,500 ppm) was 0.1, the Log reductions ([3]; Diced Tomato, PA 0 ppm, LA 3,000 ppm) was 0.0 and the Log reductions ([3]; Potato peel, PA 0 ppm, LA 1,500 ppm) was 0.1. The Log reductions ([3]; Potato peel, PA 0 ppm, LA 3,000 ppm) was 0.0, the Log reductions ([4]; PA 0 ppm, LA 1,500 ppm) was 0.0 and the Log reductions ([4]; PA 0 ppm, LA 3,000 ppm) was 0.5.

For CC(=O)OO [Peroxyacetic acid, peroxyacetic acid], the “log reduction of suspended cells” value [1, 8] was 4.52 log10, the “log reduction of suspended cells” value [1, 9] was 5.59 log10 and the “log reduction of suspended cells” value [1, 10] was 5.59 log10. The “log reduction of suspended cells” value [2, 8] was 1.40 log10, the “log reduction of suspended cells” value [2, 9] was 1.70 log10 and the “log reduction of suspended cells” value [2, 10] was 1.80 log10. For the same compound, the “Log reduction, attached cells” value (E. coli K12; Romaine, PAA 60 ppm, LA 0.0%) was 0.26, the “Log reduction, attached cells” value (E. coli K12; Romaine, PAA 70 ppm, LA 0.0%) was 0.53 and the “Log reduction, attached cells” value (E. coli K12; Romaine, PAA 80 ppm, LA 0.0%) was 1.18. The “Log reduction, attached cells” value (E. coli K12; Spinach, PAA 60 ppm, LA 0.0%) was 0.69, the “Log reduction, attached cells” value (E. coli K12; Spinach, PAA 70 ppm, LA 0.0%) was 1.33 and the “Log reduction, attached cells” value (E. coli K12; Spinach, PAA 80 ppm, LA 0.0%) was 2.46. The “Log reduction, attached cells” value (Listeria innocua; Romaine, PAA 60 ppm, LA 0.0%) was 0.6, the “Log reduction, attached cells” value (Listeria innocua; Romaine, PAA 70 ppm, LA 0.0%) was 1.0 and the “Log reduction, attached cells” value (Listeria innocua; Romaine, PAA 80 ppm, LA 0.0%) was 1.7. The “Log reduction, attached cells” value (Listeria innocua; Spinach, PAA 60 ppm, LA 0.0%) was 0.3, the “Log reduction, attached cells” value (Listeria innocua; Spinach, PAA 70 ppm, LA 0.0%) was 0.5 and the “Log reduction, attached cells” value (Listeria innocua; Spinach, PAA 80 ppm, LA 0.0%) was 1.2. The Log reductions ([3]; Diced Tomato, PA 60 ppm, LA 0 ppm) was 0.6, the Log reductions ([3]; Diced Tomato, PA 80 ppm, LA 0 ppm) was 0.7 and the Log reductions ([3]; Potato peel, PA 60 ppm, LA 0 ppm) was 1.0. For the same compound, the Log reductions ([3]; Potato peel, PA 80 ppm, LA 0 ppm) was 1.2 and the Log reductions ([4]; PA 50 ppm, LA 0 ppm) was 1.1.
